Source: PMC2033742, “Comparison of ability of protein kinase C inhibitors to arrest cell growth and to alter cellular protein kinase C localisation” (British Journal of Cancer, 1995)
Read-outs that look alike come from different tables or passages of the source.

Columns and labels:
cPKC-a = target: T1, cPKC-a (Homo sapiens, UniProt P17252); assay: Subcellular localisation of cPKC-alpha in A549 cells, Western blot of cellular fractions; format: cell-based
T1 construct: these three PKC isoenzymes are abundantly ex- pressed in A549 cells; endogenous in cells; host or cells: A549 human lung carcinoma cells
Experimental: (§1) Compounds with varying degrees of potency and specificity for PKC were investigated in A549 and MCF-7 carcinoma cells. […] To substantiate the role of PKC in the growth inhibition caused by these agents, cells were depleted of PKC by incubation with bryostatin 1 (1 jsM). […] The subcellular distribution of PKC-z-, -e and -< was measured by Western blot analysis. […] Cell growth Human A549 lung and MCF-7 breast carcinoma cells were obtained from the European Collection of Animal Cell Cul- tures (Salisbury, UK). Cells (passage number 10-30) were cultured in an atmosphere of 5% carbon dioxide, the former in Ham's F-12 medium with penicillin/streptomycin, the lat- ter in minimum essential medium (Eagle's modification) with additional pyruvate (1 mM) and non-essential amino acids. Both media were supplemented with 10% FCS (Imperial Laboratories Europe, Andover, UK, and Gibco) and gluta- mine (2 mM). Cells were subcultured routinely twice weekly to maintain logarithmic growth. For cell proliferation studies cells were seeded at a density of 1.3 x 104 cm-2 and incubat- ed with 3 ml of medium including agents, which was replen- ished at intervals of 48 h (A549) or 72 h (MCF-7). Following incubation for 4 days (A549) or 6 days (MCF-7) with drugs, cell number was assessed using a Coulter Counter Model ZM. […] Bryostatin was removed by extensive washing of the cells followed by a 2 h recovery period. […] In some experiments cells were incubated with inhibitor for 48 rather than 24 h, in this case bryostation was not removed and left in the incubate. […] Radioactivity was counted using a Packard 1500 Tricarb scintillation counter. […] The amount of protein loaded per lane was 20 tg for detection of cPKC-oc and 30 lg for nPKC-e. Detection was by enhanced chemi- luminescence generated by oxidation of luminol in the presence of hydrogen peroxide using an ECL kit from Amer- sham International.

[1] = test system: A549 lung carcinoma cells; assay: Cell growth inhibition by cell counting (Coulter Counter), A549; format: cell-based, human
Experimental: as §1

nPKC-e = target: T2, nPKC-e (Homo sapiens, UniProt Q02156); assay: Subcellular localisation of nPKC-epsilon in A549 cells, Western blot of cytosolic, particulate and nuclear fractions
T2 sequence (Q02156 1-737): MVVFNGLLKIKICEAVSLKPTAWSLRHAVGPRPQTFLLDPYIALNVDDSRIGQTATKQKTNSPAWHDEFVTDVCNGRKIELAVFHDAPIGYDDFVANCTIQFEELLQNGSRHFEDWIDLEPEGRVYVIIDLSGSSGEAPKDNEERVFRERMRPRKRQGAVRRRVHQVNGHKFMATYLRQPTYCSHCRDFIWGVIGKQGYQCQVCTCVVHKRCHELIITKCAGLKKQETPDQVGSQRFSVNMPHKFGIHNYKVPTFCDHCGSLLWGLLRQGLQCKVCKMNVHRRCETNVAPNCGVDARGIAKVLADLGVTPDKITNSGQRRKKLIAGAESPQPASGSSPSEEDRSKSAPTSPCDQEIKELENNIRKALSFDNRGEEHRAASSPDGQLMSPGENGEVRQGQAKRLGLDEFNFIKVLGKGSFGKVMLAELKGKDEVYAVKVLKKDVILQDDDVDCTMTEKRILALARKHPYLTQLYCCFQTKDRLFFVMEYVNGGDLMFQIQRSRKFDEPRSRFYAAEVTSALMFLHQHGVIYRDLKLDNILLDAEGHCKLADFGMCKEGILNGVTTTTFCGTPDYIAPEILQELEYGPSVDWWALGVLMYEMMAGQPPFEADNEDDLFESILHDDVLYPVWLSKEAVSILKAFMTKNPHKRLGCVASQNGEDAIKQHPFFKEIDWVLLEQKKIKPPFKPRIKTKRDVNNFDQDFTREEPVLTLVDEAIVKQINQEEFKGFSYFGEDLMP
Experimental: as §1

A549 cells = assay: [3H]Tdr incorporation into control (naive) A549 cells; format: cell-based, human
Experimental: as §1

PKC-depleted A549 cells = assay: [3H]Tdr incorporation into PKC-depleted (bryostatin 1 pretreated) A549 cells; format: cell-based, human
Experimental: as §1

cPKC-a and nPKC-e = assay: PKC down-regulation in A549 cells by bryostatin 1, Western blot; format: cell-based, human; details: bryostatin 1 at 1 (micromolar) for 24 h
Experimental: To substantiate the role of PKC in the growth inhibition caused by these agents, cells were depleted of PKC by incubation with bryostatin 1 (1 jsM). […] The subcellular distribution of PKC-z-, -e and -< was measured by Western blot analysis. […] Bryostatin was removed by extensive washing of the cells followed by a 2 h recovery period. […] In some experiments cells were incubated with inhibitor for 48 rather than 24 h, in this case bryostation was not removed and left in the incubate. […] The amount of protein loaded per lane was 20 tg for detection of cPKC-oc and 30 lg for nPKC-e. Detection was by enhanced chemi- luminescence generated by oxidation of luminol in the presence of hydrogen peroxide using an ECL kit from Amer- sham International.

[2] = test system: A549 lung carcinoma cells; design: method as in Dale and Gescher, 1989; Stanwell et al., 1994; details: 24 h with bryostatin 1 (1 micromolar); ref Dale and Gescher, 1989; Stanwell et al., 1994; cited from earlier work
[3] = phase I trials, ref Phillip et al., 1993, Prendiville et al.; cited from earlier work
[4] = A549 cells, 30 min, with TPA 25 nM, staurosporine effect not significant (P = 0.08)
[5] = Homo sapiens, A549, read-out: IC50 for inhibition of [3H]Tdr incorporation
[6] = Homo sapiens, A549, weaker enzyme inhibitors, read-out: concentrations which arrested growth
[7] = weaker enzyme inhibitors, read-out: concentrations which arrested growth
[8] = control A549 cells, 24 h with inhibitor, read-out: IC50 for inhibition of [3H]Tdr incorporation
[9] = PKC-depleted A549 cells (bryostatin 1 for 24 h, washed), 24 h with inhibitor, read-out: IC50 for inhibition of [3H]Tdr incorporation
[10] = A549 and MCF-7 cells, read-out: IC50 values for growth arrest (stronger growth inhibitors)

In the case of `CO[C@@H]1[C@H](N(C)C(=O)c2ccccc2)C[C@H]2O[C@]1(C)n1c3ccccc3c3c4c(c5c6ccccc6n2c5c31)C(=O)NC4` [CGP 41251], the “effect on TPA-induced cPKC-a redistribution” value (“effect” for short) (cPKC-a; [4]) is reported as “failed to affect TPA-induced cPKC-a redistribution”.

With `COc1c(C[C@@H](C)OC(=O)Oc2ccc(O)cc2)c2c3c(C[C@@H](C)OC(=O)c4ccccc4)c(OC)c(=O)c4c(O)cc(OC)c(c5c(OC)cc(O)c(c1=O)c52)c43` [Calphostin C, calphostin C] the IC50 ([1]; Homo sapiens, A549 and MCF-7 cells, read-out: IC50 values for growth arrest (stronger growth inhibitors)) was under 1 µM and the “effect” value (cPKC-a) was “failed to affect TPA-induced cPKC-a redistribution”.

With `CN(C)CCCn1cc(C2=C(c3c[nH]c4ccccc34)C(=O)NC2=O)c2ccccc21` [GF 109203X] the IC50 ([1]; A549 and MCF-7 cells, read-out: IC50 for interference with cell growth) was over 7 µM, the “concentration which changed nPKC-e localisation significantly” value (nPKC-e) was 0.1 pM and the “effect” value (cPKC-a) was “failed to affect TPA-induced cPKC-a redistribution”.

With `CC1CNCCN1S(=O)(=O)c1cccc2cnccc12` (stereo not drawn) [H-7, 1-(5-Isoquinolinesulfonyl)-2-methylpiperazine] the IC50 (A549 cells; [5]) was 32 µM, the IC50 (PKC-depleted A549 cells; [5]) was 20 µM and the IC50 [1, 6] was over 1 µM. For the same molecule, the “effect” value (cPKC-a) was “failed to affect TPA-induced cPKC-a redistribution”.

In the case of `CCCCCCCCCCCCCCCCOP(=O)([O-])OCC[N+](C)(C)C` [Miltefosine, Hexadecylphosphocholine], the IC50 [1, 6] is reported as over 1 µM and the “effect” value (cPKC-a; [4]) is reported as “failed to affect TPA-induced cPKC-a redistribution”.

In the case of `CCCCCCCCCCCCC(=O)N1CCCCC1CNC(=O)C(N)CCCCN` (stereo not drawn) [NPC 15-437, 2,6-Diamino-N-([l-(1-oxotridecyl)-2-piperidinyl]methyl)hexanamide], the IC50 [1, 7] is reported as over 1 µM.

Molecule `Cn1cc(C2=C(c3cn(CCCSC(=N)N)c4ccccc34)C(=O)NC2=O)c2ccccc21` [RO 31-8220] has an IC50 (A549 cells; [8]) of 1.9 µM, an IC50 (PKC-depleted A549 cells; [9]) of 1.6 µM and an IC50 [1, 10] of under 1 µM. The “concentration which changed nPKC-e localisation significantly” value (nPKC-e) was 0.1 pM and the “effect” value (cPKC-a) was “failed to affect TPA-induced cPKC-a redistribution”.

Molecule `CN[C@@H]1C[C@H]2O[C@@](C)([C@@H]1OC)n1c3ccccc3c3c4c(c5c6ccccc6n2c5c31)C(=O)NC4` [Staurosporine, staurosporine] has an IC50 (A549 cells; [5]) of 0.0012 µM.

With `CCCCCCCCCCCCC/C=C/[C@@H](O)[C@H](CO)[N+](C)(C)C` [TMS, trimethylsphingosine] the IC50 [1, 7] was over 1 µM.

With `CN[C@@H]1C[C@H]2O[C@@](C)([C@@H]1OC)n1c3ccccc3c3c4c(c5c6ccccc6n2c5c31)C(=O)N[C@H]4O` [UCN-01] the IC50 (A549 cells; [8]) was 0.068 µM, the IC50 (PKC-depleted A549 cells; [9]) was 0.047 µM and the IC50 [1, 10] was under 1 µM. The “concentration required for translocation relative to IC50 for growth of A549 cells” value (nPKC-e; A549) was 2- to 3 fold, the “concentration which changed nPKC-e localisation significantly” value (nPKC-e; A549 cells, 30 min, P<0.05 vs control) was 0.1 pM and the “effect” value (cPKC-a; [4]) was “behaved similarly”. For the same molecule, the “blots in which TPA-induced cPKC-a translocation was augmented” value (cPKC-a; A549 cells, UCN-01 at 1 (micromolar) with TPA 25 nM) was “three out of six”.

For `CCC/C=C/C=C/C(=O)O[C@H]1/C(=C/C(=O)OC)C[C@H]2C[C@H]([C@@H](C)O)OC(=O)C[C@H](O)C[C@@H]3C[C@H](OC(C)=O)C(C)(C)[C@](O)(C[C@@H]4C/C(=C/C(=O)OC)C[C@H](/C=C/C(C)(C)[C@]1(O)O2)O4)O3` [bryostatin 1], the “down-regulation of cPKC-a and nPKC-e” value (cPKC-a and nPKC-e) is listed as “completely down-regulated”, the “growth inhibition under PKC depletion conditions” value [2] is listed as “negligible” and the dose-limiting toxicity [3] is listed as “myalgia”.
